Legend:
filaggrin = assay: Filaggrin expression by indirect immunofluorescence on skin biopsies; assay type: cell-based, human; details: positive control, concentration not given
Experimental: Filaggrin is a protein involved in the cohesion and maintenance of the hydration of the upper layer of the epidermis, which is essential for maintaining the homeostasis of the skin barrier.
Filaggrin expression was assessed by indirect immunofluorescence on skin biopsies, pre-treated by topical application of the solubilised extract of depleted sandalwood from Example 1, diluted in 0.1% octyldodecanol (volume/volume percentages, twice daily), for 48 hours. In parallel, biopsies were treated with a sandalwood essential oil of Example 3 from the same geographical site and tested under the same conditions. Control biopsies incubated in parallel under the same conditions were given the placebo (octyldodecanol). After incubation, the biopsies were fixed and embedded in paraffin for histological sections. Detection of filaggrin was performed by incubation with anti-filaggrin antibody (Santa Cruz). After one and a half hours of incubation followed by rinses, the sections were incubated in the presence of the anti-mouse secondary antibody coupled to a fluorophore (Alexa Fluor® 488, Invitrogen). The sections were then examined under an Epi-fluorescence microscope (Zeiss Axiovert 200M microscope). Filaggrin expression was then observed and quantified by image analysis (Volocity® image analysis software, Improvision).

[1] = test system: olfactory receptor OR2AT4; assay: OR2AT4 expression by indirect immunofluorescence on human skin biopsies; assay type: cell-based
Experimental: OR2AT4 expression was assessed by indirect immunofluorescence on skin biopsies, pre-treated by topical application of the solubilised extract of depleted sandalwood of Example 1 at 0.1%, 0.5% and 1% (volume/volume percentages), for 48 hours (twice daily). For this purpose, the solubilised extract of depleted sandalwood from Example 1 was diluted in 0.1%, 0.5% and 1% (volume/volume percentages) octyldodecanol. Other biopsies were given similar dilutions of sandalwood essential oil from Example 3 or a synthetic analogue Sandalore. Control biopsies incubated in parallel under the same conditions received placebo (octyldodecanol). After incubation, the biopsies were fixed and embedded in paraffin for histological sections. Detection of the OR2AT4 receptor was performed by incubation with anti-OR2AT4 antibody (Novus). After one and a half hours of incubation followed by rinses, the sections are incubated in the presence of the anti-rabbit secondary antibody coupled to a fluorophore (Alexa Fluor® 488, Invitrogen). The sections were then examined under an Epi-fluorescence microscope (Zeiss Axiovert 200M microscope). OR2AT4 expression was then observed and quantified by image analysis (Volocity® image analysis software, Improvision).

OR2AT4 expression increase ([1]; 1% (v/v) in octyldodecanol, topical, twice daily, 48 hours, vs placebo)	OR2AT4 expression increase ([1]; 3% topical application)	OR2AT4 expression increase ([1]; 5% topical application)	effect on OR2AT4 expression ([1]; application of less than 1%)	SMILES	increase in filaggrin (filaggrin)
–	–	–	–	O=C(O[C@@H]1Cc2c(O)cc(O)cc2O[C@@H]1c1cc(O)c(O)c(O)c1)c1cc(O)c(O)c(O)c1 [EGCG, epigallocatechin gallate]	+27%
28%	72%	71%	does not seem to have any effect	CC1=CCC(CCC(C)C(C)O)C1(C)C (centres unmarked) [Sandalore]	–

From US20230165785A1, “METHOD FOR OBTAINING AN EXTRACT OF SANDALWOOD, COMPOSITIONS COMPRISING SAME AND COSMETIC USES THEREOF” (ISP INVESTMENTS LLC, priority 2020, published 2023)
